The values that follow come from patent US20130287757A1, “COMPOSITION FOR THE REGENERATION OF ATROPHIC TISSUES” (MEDESTEA INTERNAZIONALE S.P.A., priority 2011, published 2013).

The subject of experiment [1] is biopsies from chronic atrophic ulcers (base and margins). Description: FACS of cell suspensions from cultured biopsies. The experiment is classed as cell-based, animal. As to conditions: for CK-1, FACS absolute value / CK-5, FACS absolute value / CK-10, FACS absolute value / CK-14, FACS absolute value / Collagen type I, FACS absolute value / Collagen type IV, FACS absolute value: geometric mean +/− Standard Deviation; for CK-1, FACS fluorescence as percentage value / CK-5, FACS fluorescence as percentage value / CK-10, FACS fluorescence as percentage value / CK-14, FACS fluorescence as percentage value / Collagen type I, FACS fluorescence as percentage value / Collagen type IV, FACS fluorescence as percentage value: relative to the isotypes, nonspecific fluorescence deducted. The method, then:
The animal biopsy samples investigated are constituted of biopsies from chronic atrophic ulcers (base and margins).
The biopsies were then sectioned into twelve parts ([…] controls, 1-11, and one sample, 12, to be treated for each patient) and suspended in a final volume of 25 ml of the respective culture solutions in plates (Lab-Tek chamber slides, Nunc, Kamstrup, Denmark) of 10 cm.
One type of sample (12th portion of each biopsy investigated) was prepared, as follows: • sample-12: the biopsy findings of sample (12) were placed in plates (Lab-Tek chamber slides, Nunc, Kamstrup, Denmark) of 10 cm in culture medium in a solution Culture medium UL-MD.
All the findings were incubated for 15 days in a Heraeus incubator thermostatically controlled to a temperature of 37° C. with an atmosphere containing 5% of constant supply of CO2 (v/v in air). Two thirds of the culture medium was replaced every 7 days. All biopsy tissues used in culture constitute a possible optional substrate co-conditioning for the three-dimensional growth of the cellular samples investigated.
Cellular suspensions obtained after digestion with collagenase were transferred to 15-ml test tubes (Nunc, Kamstrup, Denmark) and fixed in 4% paraformaldehyde solution for 30 minutes at room temperature. After three washings with PBS (pH 7.4), the cells were permeabilized with Triton 0.1% for 15 minutes, […] at room temperature. The pellets of the samples (Sample, 12) and of the controls (CTRLs, 1-11) were resuspended to a final concentration of 5×10^5 cells/ml in PBS and incubated with the following primary antibodies (ABD serotec, Kidlington-Oxford, UK): anti-collagen type I, anti-collagen type anti-IV and anti-cytokeratins (CK)-1, -5, -10, -14. All monoclonal antibodies conjugated with R-phycoerythrin (PE) or fluorescein isothiocyanate (FITC) were used. Specific controls with the corresponding isotypes were divided for each monoclonal antibody (ABD serotec). The samples were submitted to quantitative analysis by a laser cytofluorometer (Epics profile II, Coulter, Hialeath, FL) at 488 nm, where the percentage of fluorescent cells (PFC) reflects the geometric mean of the field of interest. The threshold values (gates) were established using control samples labelled with the corresponding isotype. All the values were analysed with a minimum threshold of 15 000 cells.
The results relating to the expression of collagen type I, collagen type IV and of cytokeratins (CK) 1, 5, 10 and 14 were expressed with a quantitative scale relative to the fluorescence expressed as a percentage value relative to the isotypes, after deducting the assumed nonspecific fluorescence (specific gate), as follows: […]

Experiment [2] has the same test system. Description: Western Blot phenotypic analysis of cultured biopsies. Type of experiment: cell-based, animal. As to conditions: 15 days culture. More on the design: key: −−− = absence of band; −/+ = slight presence of band; + = thin band present; ++ = medium band present; +++ = broad band present; ++++ = high band present; +++++ = diffuse band present. Here is the method: The animal biopsy samples investigated are constituted of biopsies from chronic atrophic ulcers (base and margins). The biopsies were then sectioned into twelve parts ([…] controls, 1-11, and one sample, 12, to be treated for each patient) and suspended in a final volume of 25 ml of the respective culture solutions in plates (Lab-Tek chamber slides, Nunc, Kamstrup, Denmark) of 10 cm. Eleven types of control were prepared: • a negative control, untreated (1), i.e. treated exclusively with saline and antibiotics (as described above); • a positive control treated (2) with cell culture media commonly used for skin biopsies; • a control-3 treated with DMEM-LG/F 12 (1:1) culture medium and with the active ingredient described in Table 4. • a control-4 treated with DMEM-LG/F 12 (1:1) culture medium and with the active ingredient described in Table 5. • a control-5 treated with DMEM-LG/F 12 (1:1) culture medium and with the active ingredient described in Table 6. • a control-6 treated with DMEM-LG/F 12 (1:1) culture medium and with the active ingredient described in Table 7. • a control-8 treated with DMEM-LG/F 12 (1:1) culture medium and with the active ingredient described in Table 8. • a control-9 treated with DMEM-LG/F 12 (1:1) culture medium and with the active ingredient described in Table 9. • a control-10 treated with DMEM-LG/F12 (1:1) culture medium and with the active ingredient described in Table 10. • a control-11 treated with DMEM-LG/F12 (1:1) culture medium and with the active ingredient described in Table 11. One type of sample (12th portion of each biopsy investigated) was prepared, as follows: • sample-12: the biopsy findings of sample (12) were placed in plates (Lab-Tek chamber slides, Nunc, Kamstrup, Denmark) of 10 cm in culture medium in a solution Culture medium UL-MD. […] Two thirds of the culture medium was replaced every 7 days. All biopsy tissues used in culture constitute a possible optional substrate co-conditioning for the three-dimensional growth of the cellular samples investigated. […] After five washings, the membranes were incubated with the respective secondary antibodies (1:1000) conjugated with horseradish peroxidase (HRP, Santa Cruz, Calif., USA) for 1 h at room temperature, as shown below in Table 12.
A general note: In western blotting, separated proteins are transferred to a membrane and probed.

Regarding `CC1(C)[C@@H](O)CC[C@]2(C)[C@H]3C(=O)C=C4[C@@H]5C[C@@](C)(C(=O)O)CC[C@]5(C)CC[C@@]4(C)[C@]3(C)CC[C@@H]12` [CTRL 8, Glycyrrhetic acid], in experiment [1], the “CK-1, FACS absolute value” is 5 +/− 3; the “CK-5, FACS absolute value” is recorded as 3 +/− 1; the “CK-10, FACS absolute value” was 4 +/− 1; the “CK-14, FACS absolute value” was 2 +/− 1. Besides, in experiment [1], the “Collagen type I, FACS absolute value” is 6 +/− 4; the “Collagen type IV, FACS absolute value” is reported as 7 +/− 5; the “CK-1, FACS fluorescence as percentage value” is on record as 1%; the “CK-5, FACS fluorescence as percentage value” was determined as 1%. Moreover, in experiment [1], the “CK-10, FACS fluorescence as percentage value” is on record as 0.5%; the “CK-14, FACS fluorescence as percentage value” was determined as 0.1%; the “Collagen type I, FACS fluorescence as percentage value” came to 0.9%; the “Collagen type IV, FACS fluorescence as percentage value” (“Collagen type IV … as percentage value” below) was determined as 0.9%. In experiment [2], the “CK-1 expression, Western Blot band” value is “−/+”; the “CK-5 expression, Western Blot band” value is listed as “−/+”; the “CK-10 expression, Western Blot band” value was “+”; the “CK-14 expression, Western Blot band” value is listed as “−/+”. In experiment [2], the “Collagen type I expression, Western Blot band” value was “−/+” and the “Collagen type IV expression, Western Blot band” value is on record as “−/+”.
For `O=C(O)c1ccccc1O` [CTRL 4, Salicylic acid], in experiment [1], the “CK-1, FACS absolute value” is given as 29 +/− 7; the “CK-5, FACS absolute value” is reported as 6 +/− 5; the “CK-10, FACS absolute value” is 9 +/− 7; the “CK-14, FACS absolute value” is on record as 11 +/− 8. In addition, in experiment [1], the “Collagen type I, FACS absolute value” is 12 +/− 3; the “Collagen type IV, FACS absolute value” is 9 +/− 8; the “CK-1, FACS fluorescence as percentage value” was 14%; the “CK-5, FACS fluorescence as percentage value” worked out at 0%. In addition, in experiment [1], the “CK-10, FACS fluorescence as percentage value” came out at 1.9%; the “CK-14, FACS fluorescence as percentage value” worked out at 1.25%; the “Collagen type I, FACS fluorescence as percentage value” amounted to 3.9%; the “Collagen type IV … as percentage value” came to 0.3%. Further, in experiment [2], the “CK-1 expression, Western Blot band” value is recorded as “++”; the “CK-10 expression, Western Blot band” value is “+”; the “CK-14 expression, Western Blot band” value was “+”; the “Collagen type I expression, Western Blot band” value is listed as “+”.
For `[O]=[Zn]` [CTRL 6, Zinc oxide powder], in experiment [1], the “CK-1, FACS absolute value” is 14 +/− 11; the “CK-5, FACS absolute value” is on record as 2 +/− 2; the “CK-10, FACS absolute value” was 1 +/− 1; the “CK-14, FACS absolute value” was 10 +/− 7. In experiment [1], the “Collagen type I, FACS absolute value” is recorded as 3 +/− 2; the “Collagen type IV, FACS absolute value” was 12 +/− 8; the “CK-1, FACS fluorescence as percentage value” came to 3%; the “CK-5, FACS fluorescence as percentage value” amounted to 0%. In addition, in experiment [1], the “CK-10, FACS fluorescence as percentage value” is 0%; the “CK-14, FACS fluorescence as percentage value” is recorded as 1.7%; the “Collagen type I, FACS fluorescence as percentage value” came to 0.3%; the “Collagen type IV … as percentage value” was 1.5%. In experiment [2], the “CK-1 expression, Western Blot band” value was “+”; the “CK-14 expression, Western Blot band” value is given as “+”; the “Collagen type IV expression, Western Blot band” value was “+”.

B1: Papain FU (protein, UniProt P00784 134-345, looked up)
Papain: IPEYVDWRQKGAVTPVKNQGSCGSCWAFSAVVTIEGIIKIRTGNLNEYSEQELLDCDRRSYGCNGGYPWSALQLVAQYGIHYRNTYPYEGVQRYCRSREKGPYAAKTDGVRQVQPYNEGALLYSIANQPVSVVLEAAGKDFQLYRGGIFVGPCGNKVDHAVAAVGYGPNYILIKNSWGTGWGENGYIRIKRGTGNSYGVCGLYTSSFYPVKN
For B1, in experiment [1], the “CK-1, FACS absolute value” was 11 +/− 9; the “CK-5, FACS absolute value” is on record as 8 +/− 5; the “CK-10, FACS absolute value” is on record as 1 +/− 1; the “CK-14, FACS absolute value” was 19 +/− 14. Also, in experiment [1], the “Collagen type I, FACS absolute value” is reported as 5 +/− 4-; the “Collagen type IV, FACS absolute value” is recorded as 7 +/− 6; the “CK-1, FACS fluorescence as percentage value” was 2%; the “CK-5, FACS fluorescence as percentage value” worked out at 1.2%. In addition, in experiment [1], the “CK-10, FACS fluorescence as percentage value” is given as 0%; the “CK-14, FACS fluorescence as percentage value” is 2%; the “Collagen type I, FACS fluorescence as percentage value” amounted to 0.5%; the “Collagen type IV … as percentage value” is given as 0.1%. Further, in experiment [2], the “CK-1 expression, Western Blot band” value is recorded as “+”; the “CK-5 expression, Western Blot band” value is reported as “+”; the “CK-14 expression, Western Blot band” value is on record as “+”.
